Experimental data published in patent US9084770B2, “Modulation of insulin like growth factor I receptor expression in cancer” (Antisense Therapeutics, Ltd., priority 2008, dated 2015).
Marks after values point to notes of the source that are not given here.

What was measured:
LNCaP cells = assay: LNCaP cell viability, crystal violet assay; type: cell-based, human
Protocol: (§1) Established methods were used to test the activity of IGF-IR antisense oligonucleotide on LNCaP and PC-3 cell growth (crystal violet assay) and apoptosis (FACS). Dose- and sequence-specific suppression of IGF-IR mRNA and protein expression in ATL1101-treated LNCaP and PC3 PC cell lines in vitro were observed by QT-PCR and western blotting. Effects of the IGF-IR antisense oligonucleotide on various putative targets, including IGF-IR and downstream targets were evaluated using western blotting.
Cells were transfected with indicated concentrations of ATL1101, control oligodeoxynucleotides or oligofectamine as in FIGS. 1A(i)-1A(ii). Three days after treatment, cell viability was determined by crystal violet assay. Viable cell density was normalized to that of cells treated with oligofectamine. Points, means of triplicate analysis; bars, SE. *, p<0.05 differs from control oligodeoxynucleotide treatment group. **, p<0.01 differs from control oligodeoxynucleotide treatment group by Student's t test.

PC3 cells [1] = assay: PC3 cell cycle and apoptosis, flow cytometry with propidium iodide; type: cell-based, human; conditions: PC3, FBS condition, 200 nM
Protocol: as §1
The Effect of IGF-IR silencing with IGF-IR antisense oligonucleotide (ATL1101) on LNCaP and PC3 cell apoptosis and cell cycle is shown in FIGS. 4A(i)-(ii), 4B, 4C(i)-(ii), and Table 2. Cells were transfected with indicated concentrations of ATL1101, control oligodeoxynucleotide or oligofectamine as in FIGS. 1A(i)-1B(ii). Two days after treatment, cell cycle analysis was determined by flow cytometry using propidium iodide staining. […] In FIGS. 4C(i)-(ii), LNCaP (FIG. 4C (i)) or PC-3 (FIG. 4C (ii)) cells were transfected with indicated concentration of ATL1101 or control oligodeoxynucleotide (ISIS 306064) for two days. Cells were then cultured in FBS media for one day and in serum-free media for one day. Whole cell lysates (30 μg) were subjected to SDS-PAGE and immunoblotted to assess Cyclin D1, Cyclin E, p-RB, total Rb, and p27 protein levels. Oligo, oligofectamine treated cells only.

LNCaP tumors = assay: LNCaP xenograft after castration, tumor volume and serum PSA; type: in vivo, mice; conditions: 15 mg/kg i.p. once daily for 7 days and 3 times per week thereafter; vs control oligodeoxynucleotide
Protocol: One million PC-3 or LNCaP cells were injected subcutaneously in athymic mice. For LNCaP xenografts, when PSA values exceeded 50 ng/ml, mice were castrated and randomly selected for treatment with ATL1101 or control oligodeoxynucleotide (15 mg/kg) injected i.p. once daily for 7 days and 3 times per week thereafter. Blood samples were obtained from the tail vein of the mice once weekly to measure serum PSA by ELISA. For PC-3 xenografts, when tumors reached 100 mm^3, mice were randomly selected and treated with the same protocol as LNCaP.
The effects of IGF-IR antisense oligonucleotide treatment in LNCaP and PC-3 tumors in vivo are show in FIGS. 5A-5C. LNCaP cells were inoculated s.c. and when PSA values exceeded 50 ng/ml, mice were castrated and randomly selected for treatment with ATL1101 or control oligodeoxynucleotide (15 mg/kg) injected i.p. once daily for 7 days and 3 times per week thereafter. Blood samples were obtained from the tail vein of the mice once weekly to measure serum PSA by ELISA. PC-3 cells were inoculated s.c. and when tumors reached 100 mm^3, mice were randomly selected for treatment with the same protocol as LNCaP. Each point represents the mean tumor volume in each group containing 10 mice; bars, SE. * differs from control oligodeoxynucleotide treatment group (p<0.05) by Student's t test.

Ki67 = Ki67 immunohistochemistry in psoriatic skin biopsies after topical treatment; type: in vivo; conditions: topically applied
Protocol: The present inventors assessed proliferation by Ki67 labeling in paraffin wax-embedded, formalin-fixed, 3 mm diameter, full-thickness psoriatic skin biopsies at the conclusion of the treatment phase of topically applied ATL1101. The tissue was analyzed to assess the effect of the antisense treatments on Ki67 expression using immunohistochemical analysis.

IGF-IRB subunit = assay: IGF-IRB immunoblot in PC3 cells with or without Paclitaxel; type: cell-based, human; conditions: 50 nM, with or without 1 nM Paclitaxel
Excerpt: Vinculin expression is shown as a loading control.

PC3 tumors = assay: PC-3 xenograft with Paclitaxel, mean tumor volume; type: in vivo, mice; conditions: for mean tumor size: 15 mg/kg i.p. oligonucleotide plus Paclitaxel; for mean tumor size, % of control: plus Paclitaxel
Excerpt: In vivo treatments in a PC-3 xenograft model were done substantially as described by Zellweger et al., 2001. PC3 cells (2×10^6 cells) were xenografted by subcutaneous injection into recipient 6-8 week-old athymic nude (nu/nu) mice. When tumors reached 200 mm^3, mice were randomly assigned to one of two arms for treatment with 2′-MOE-modified IGF-IR antisense oligonucleotide (ATL1101) plus Paclitaxel, or mismatch control oligodeoxynucleotide ISIS 306064 plus Paclitaxel. Each experimental group consisted of 10 mice. After randomization, 15 mg/kg of ATL1101 antisense oligonucleotide or mismatch control oligonucleotide were injected intraperitoneal (i.p.) into each mouse once daily for the first 5 days and 3 times a week (every other day) thereafter for 7 weeks. On days 7, 9, 11, and on days 21, 23, and 25, 0.5 mg of polymeric micellar Paclitaxel was administered once daily by i.v. injection. Mean Tumor volume was measured once weekly for 8 weeks and calculated by the formula length×width×depth×0.5236.
In PC3 mice, after 5 weeks of treatment, mean tumor size in mice treated with Paclitaxel and mismatch control oligodeoxynucleotide was 326+/−40.9 mm^3 compared with 175+/−20.1 mm^3 in mice treated with Paclitaxel and ATL1101, or 53.7% of control (p<0.01). After 8 weeks of treatment, mean tumor size in mice treated with Paclitaxel and mismatch control oligodeoxynucleotide was 1417+/−222 mm^3 compared with 507+/−79.3 mm^3 in mice treated with Paclitaxel and ATL1101, or 35.8% of control (p<0.01).

IGF-IR mRNA = conditions: other cell lines, dose-dependent and sequence specific; cited from earlier work
PC3 cells [2] = assay: PC3 viable cells and apoptosis after transfection plus Paclitaxel
Protocol: PC3 cells cultured in vitro were transfected at concentrations of IGF-IR antisense oligonucleotide (ATL1101) or control oligodeoxynucleotide (ISIS 306064) ranging from 12.5 nM to 50 nM or oligofectamine control once per day on two sequential days. After the 2nd transfection, the PC3 cells were treated with concentrations of between 0.1 to 50 nM Paclitaxel. The number of viable cells remaining were determined 72 hours after Paclitaxel treatment.

cgaaggaaacaatactccga (CGAAGGAAACAATACTCCGA; 2'-MOE modified, pattern not given here) [ISIS 175317]
maximum reduction of cell viability relative to control (LNCaP cells; FBS media, achieved by 100 nM, three days after treatment): ~60%
suppression of cell viability (LNCaP cells; androgen-deprived conditions (CSS), 25 nM): 60%
% of total cells, G0/G1 (PC3 cells [1]): 19.3%
% of total cells, G2/M (PC3 cells [1]): 8.4%
% of total cells, S (PC3 cells [1]): 9.8%
% of total cells, Sub G0/G1 (PC3 cells [1]): 62.5%
subG0/G1 + G0/G1:S + G2/M (PC3 cells [1]): 4.5**
PSA rise rates after castration (LNCaP tumors): significantly delayed
tumor growth after castration (LNCaP tumors): significantly delayed
Ki67 by length (mm) and area (mm squared) vs. mismatch control (Ki67): Statistically significant reduction
IGF-IRB levels (IGF-IRB subunit): specifically reduced
mean tumor size (PC3 tumors; after 5 weeks of treatment): 175+/−20.1 mm^3
mean tumor size, % of control (PC3 tumors; after 5 weeks of treatment): 53.7%
mean tumor size (PC3 tumors; after 8 weeks of treatment): 507+/−79.3 mm^3
mean tumor size, % of control (PC3 tumors; after 8 weeks of treatment): 35.8%
inhibition of IGF-IR mRNA expression (IGF-IR mRNA): significantly inhibit
fold higher Paclitaxel concentration (10 nM vs 1 nM) needed with 25 nM mismatch control for similar viability (PC3 cells [2]; 25 nM ATL1101 with 1 nM Paclitaxel): 10 fold
amount of Paclitaxel required to induce tumor cell apoptosis (PC3 cells [2]; in combination with ATL1101): significantly reduced
